Experimental data published in ChEMBL document CHEMBL3885861, “Open TG-GATES”.

Organism: Rattus norvegicus
Test: Open TG-GATES - Regimen: Daily Repeat
Assay type: toxicity, organism-based, Sprague-Dawley
Parameters: regimen Daily Repeat, gender Male, age 6 weeks
Details: in vivo, po, 75 mg/kg, route gavage, dose level High; for APTT / Bas / Eos / Fbg / Hb / Ht / Lym / MCH / MCHC / MCV / Mono / Neu / PT / Plat / RBC / Ret / WBC: tissue Blood; for KIDNEY_L / KIDNEY_R / KIDNEY_TOTAL: tissue Kidney; for LIVER: tissue Liver; for A/G / ALP / ALT / AST / BUN / CRE / Ca / Cl / DBIL / GLC / IP / K / LDH / Na / PL / RALB / TBIL / TC / TG / TP / gamma-GTP: tissue Plasma

`NC1=NC(=O)C(c2ccccc2)O1` (configuration not stated) [PEMOLINE] was tested, and the TERMINAL_BW (72 h, time 3 day) was 210.2 g, the APTT (72 h, time 3 day) was 16.1 s and the Bas (72 h, time 3 day) was 0%. It also gave an Eos (72 h, time 3 day) of 1%, a Fbg (72 h, time 3 day) of 378.8 mg/dL and a Hb (72 h, time 3 day) of 13.2 g/dL. For the same compound, the Ht (72 h, time 3 day) was 38.4%, the Lym (72 h, time 3 day) was 72.6% and the MCH (72 h, time 3 day) was 21.4 pg. For the same compound, the MCHC (72 h, time 3 day) was 34.3%, the MCV (72 h, time 3 day) was 62.4 fL and the Mono (72 h, time 3 day) was 4%. It also gave a Neu (72 h, time 3 day) of 21.4%, a PT (72 h, time 3 day) of 13.1 s and a Plat (72 h, time 3 day) of 116.2 x10_4/uL. It also gave an RBC (72 h, time 3 day) of 614.2 x10_4/ul, a Ret (72 h, time 3 day) of 5.7% and a WBC (72 h, time 3 day) of 96.9 x10_2/uL. The KIDNEY_L (72 h, time 3 day) was 1 g, the KIDNEY_R (72 h, time 3 day) was 1 g and the KIDNEY_TOTAL (72 h, time 3 day) was 1.9 g. It also gave an LIVER (72 h, time 3 day) of 9.5 g, an A/G (72 h, time 3 day) of 0.9 and an ALP (72 h, time 3 day) of 1189.4 IU/L. The ALT (72 h, time 3 day) was 40.6 IU/L, the AST (72 h, time 3 day) was 91.6 IU/L and the BUN (72 h, time 3 day) was 14.4 mg/dL. It also gave a CRE (72 h, time 3 day) of 0.2 mg/dL, a Ca (72 h, time 3 day) of 10.5 mg/dL and a Cl (72 h, time 3 day) of 106 meq/L. It also gave a DBIL (72 h, time 3 day) of 0.014 mg/dL, a GLC (72 h, time 3 day) of 162.2 mg/dL and an IP (72 h, time 3 day) of 7.4 mg/dL. For the same compound, the K (72 h, time 3 day) was 4 meq/L, the LDH (72 h, time 3 day) was 46.6 IU/L and the Na (72 h, time 3 day) was 142.6 meq/L. It also gave a PL (72 h, time 3 day) of 118.6 mg/dL, an RALB (72 h, time 3 day) of 2.6 g/dL and a TBIL (72 h, time 3 day) of 0.03 mg/dL. For the same compound, the TC (72 h, time 3 day) was 70.8 mg/dL, the TG (72 h, time 3 day) was 40.2 mg/dL and the TP (72 h, time 3 day) was 5.4 g/dL. For the same compound, the gamma-GTP (72 h, time 3 day) was 1 IU/L, the TERMINAL_BW ([…], time 7 day) was 237.7 g and the TERMINAL_BW ([…], time 14 day) was 305 g. The TERMINAL_BW ([…], time 28 day) was 376.6 g, the APTT ([…], time 7 day) was 16.7 s and the Bas ([…], time 7 day) was 0%. For the same compound, the Eos ([…], time 7 day) was 1%, the Fbg ([…], time 7 day) was 294.8 mg/dL and the Hb ([…], time 7 day) was 13.9 g/dL. For the same compound, the Ht ([…], time 7 day) was 40.7%, the Lym ([…], time 7 day) was 78% and the MCH ([…], time 7 day) was 21.9 pg. For the same compound, the MCHC ([…], time 7 day) was 34.2%, the MCV ([…], time 7 day) was 63.8 fL and the Mono ([…], time 7 day) was 3%. For the same compound, the Neu ([…], time 7 day) was 17.8%, the PT ([…], time 7 day) was 12.9 s and the Plat ([…], time 7 day) was 131.8 x10_4/uL. The RBC ([…], time 7 day) was 638.8 x10_4/ul, the Ret ([…], time 7 day) was 6.6% and the WBC ([…], time 7 day) was 88.3 x10_2/uL. For the same compound, the APTT ([…], time 14 day) was 16.9 s, the Bas ([…], time 14 day) was 0% and the Eos ([…], time 14 day) was 1.2%. The Fbg ([…], time 14 day) was 259.4 mg/dL, the Hb ([…], time 14 day) was 14.6 g/dL and the Ht ([…], time 14 day) was 41.8%. The Lym ([…], time 14 day) was 72.4%, the MCH ([…], time 14 day) was 21.1 pg and the MCHC ([…], time 14 day) was 34.8%. The MCV ([…], time 14 day) was 60.5 fL, the Mono ([…], time 14 day) was 2.8% and the Neu ([…], time 14 day) was 23.2%. It also gave a PT ([…], time 14 day) of 13 s, a Plat ([…], time 14 day) of 105.3 x10_4/uL and an RBC ([…], time 14 day) of 691.2 x10_4/ul. It also gave a Ret ([…], time 14 day) of 4.7%, a WBC ([…], time 14 day) of 89.3 x10_2/uL and an APTT ([…], time 28 day) of 18.6 s. The Bas ([…], time 28 day) was 0.4%, the Eos ([…], time 28 day) was 1% and the Fbg ([…], time 28 day) was 255.2 mg/dL. It also gave a Hb ([…], time 28 day) of 15.7 g/dL, a Ht ([…], time 28 day) of 44.2% and a Lym ([…], time 28 day) of 79.4%. It also gave an MCH ([…], time 28 day) of 20.8 pg, an MCHC ([…], time 28 day) of 35.6% and an MCV ([…], time 28 day) of 58.5 fL. For the same compound, the Mono ([…], time 28 day) was 2.8%, the Neu ([…], time 28 day) was 16.2% and the PT ([…], time 28 day) was 12.6 s. The Plat ([…], time 28 day) was 90.5 x10_4/uL, the RBC ([…], time 28 day) was 755.2 x10_4/ul and the Ret ([…], time 28 day) was 2.8%. The WBC ([…], time 28 day) was 90.3 x10_2/uL, the KIDNEY_L ([…], time 7 day) was 1.1 g and the KIDNEY_R ([…], time 7 day) was 1.1 g. For the same compound, the KIDNEY_TOTAL ([…], time 7 day) was 2.1 g, the KIDNEY_L ([…], time 14 day) was 1.3 g and the KIDNEY_R ([…], time 14 day) was 1.3 g. For the same compound, the KIDNEY_TOTAL ([…], time 14 day) was 2.6 g, the KIDNEY_L ([…], time 28 day) was 1.5 g and the KIDNEY_R ([…], time 28 day) was 1.4 g. For the same compound, the KIDNEY_TOTAL ([…], time 28 day) was 2.9 g, the LIVER ([…], time 7 day) was 10.9 g and the LIVER ([…], time 14 day) was 13.8 g. The LIVER ([…], time 28 day) was 16.2 g, the A/G ([…], time 7 day) was 0.9 and the ALP ([…], time 7 day) was 1601.8 IU/L. The ALT ([…], time 7 day) was 44 IU/L, the AST ([…], time 7 day) was 83.2 IU/L and the BUN ([…], time 7 day) was 15 mg/dL. It also gave a CRE ([…], time 7 day) of 0.2 mg/dL, a Ca ([…], time 7 day) of 10.6 mg/dL and a Cl ([…], time 7 day) of 105.8 meq/L. For the same compound, the DBIL ([…], time 7 day) was 0.015 mg/dL, the GLC ([…], time 7 day) was 174.8 mg/dL and the IP ([…], time 7 day) was 7.7 mg/dL. It also gave a K ([…], time 7 day) of 4.4 meq/L, an LDH ([…], time 7 day) of 65 IU/L and a Na ([…], time 7 day) of 142.5 meq/L. The PL ([…], time 7 day) was 128.2 mg/dL, the RALB ([…], time 7 day) was 2.6 g/dL and the TBIL ([…], time 7 day) was 0.025 mg/dL. For the same compound, the TC ([…], time 7 day) was 65.8 mg/dL, the TG ([…], time 7 day) was 65.5 mg/dL and the TP ([…], time 7 day) was 5.6 g/dL. It also gave a gamma-GTP ([…], time 7 day) of 1 IU/L, an A/G ([…], time 14 day) of 0.8 and an ALP ([…], time 14 day) of 1468 IU/L. It also gave an ALT ([…], time 14 day) of 39 IU/L, an AST ([…], time 14 day) of 79.8 IU/L and a BUN ([…], time 14 day) of 14.8 mg/dL. The CRE ([…], time 14 day) was 0.2 mg/dL, the Ca ([…], time 14 day) was 11.1 mg/dL and the Cl ([…], time 14 day) was 106 meq/L. The DBIL ([…], time 14 day) was 0.012 mg/dL, the GLC ([…], time 14 day) was 176.2 mg/dL and the IP ([…], time 14 day) was 8.1 mg/dL. For the same compound, the K ([…], time 14 day) was 4 meq/L, the LDH ([…], time 14 day) was 79.2 IU/L and the Na ([…], time 14 day) was 143.4 meq/L. It also gave a PL ([…], time 14 day) of 135 mg/dL, an RALB ([…], time 14 day) of 2.7 g/dL and a TBIL ([…], time 14 day) of 0.022 mg/dL. For the same compound, the TC ([…], time 14 day) was 69.2 mg/dL, the TG ([…], time 14 day) was 86.8 mg/dL and the TP ([…], time 14 day) was 5.9 g/dL. The gamma-GTP ([…], time 14 day) was 1 IU/L, the A/G ([…], time 28 day) was 0.8 and the ALP ([…], time 28 day) was 1096 IU/L. It also gave an ALT ([…], time 28 day) of 44.6 IU/L, an AST ([…], time 28 day) of 77.6 IU/L and a BUN ([…], time 28 day) of 16.4 mg/dL. The CRE ([…], time 28 day) was 0.2 mg/dL, the Ca ([…], time 28 day) was 11.3 mg/dL and the Cl ([…], time 28 day) was 105 meq/L. The DBIL ([…], time 28 day) was 0.024 mg/dL, the GLC ([…], time 28 day) was 179.2 mg/dL and the IP ([…], time 28 day) was 7.6 mg/dL. For the same compound, the K ([…], time 28 day) was 4 meq/L, the LDH ([…], time 28 day) was 81.4 IU/L and the Na ([…], time 28 day) was 143.6 meq/L. For the same compound, the PL ([…], time 28 day) was 126.8 mg/dL, the RALB ([…], time 28 day) was 2.8 g/dL and the TBIL ([…], time 28 day) was 0.034 mg/dL. For the same compound, the TC ([…], time 28 day) was 59 mg/dL, the TG ([…], time 28 day) was 132 mg/dL and the TP ([…], time 28 day) was 6.2 g/dL. It also gave a gamma-GTP ([…], time 28 day) of 1 IU/L.
